Test results: US11046701B2, “Salt of cetagliptin, preparation method thereof, pharmaceutical composition, and use thereof” (CGENETECH (SUZHOU, CHINA) CO., LTD., priority 2018, dated 2021)
≈ marks a conversion by molar mass, not a printed value. Where “and” joins values, the source holds several entries; their conditions need not be identical. Equal values may be shown once.

Tests used:
[1] = XRPD of phosphate crystal form A after heating; type: physicochemical; details: heated for 48 h at 50° C.
Description: After detection, the obtained solid was the crystal form A of phosphate, its XRPD data was shown in Table 9 below, its XRPD pattern was shown in FIG. 4, and its TGA chart and DSC chart were shown in FIG. 5. […] (peak temperatures) before decomposition.

[2] = Rough solubility of the amorphous phosphate in solvents; type: physicochemical; details: thermodynamic from solid
Method: The rough solubility of the amorphous phosphate prepared in Example 1 was measured. During the test, about 2 mg of the amorphous phosphate prepared in Example 1 was weighed and put into a 3 mL glass bottle, the solvents listed in the following Table 8 were added separately at an amount of 20 microliters/each time, and it was observed whether the sample was completely dissolved. If the sample was still not dissolved completely after 2.0 mL of the solvents was added, the test ended.

[3] = tested on: DIO mice; test: Long-term administration on DIO mice: serum metabolic parameters (NEFA, TCHO, TG, insulin); type: in vivo, C57BL16 mice; details: 30 mg/kg, end of long-term administration
Description: Experimental animals: […] Table 18 was a total data table of the metabolic parameters.

[4] = Long-term administration on DIO mice: weight, food intake, tolerance
Method: (§3) A solution with a certain concentration was prepared from the crystal form B of the phosphate, and the administration volume was 10 mL/kg.
(§4) Experimental animals: C57BL16 mice aged for 5 weeks and weighed for about 13-16 g.
(§5) Grouping and administration scheme: the mice were fed adaptively and divided into a normal control group and a model group which were fed with high-fat feed (Research diets, D 12492). When the fasting blood glucose of the mice was greater than or equal to 7 mM, it was considered that the mice had become DIO mice. The DIO mice could be selected for the hypoglycemic effect test. The DIO mice were stratified and randomly grouped according to the blood glucose and the weight. […] The weight and the fasting blood glucose were measured weekly; the food amount, the remaining food amount and the food intake were recorded; the mice were fasted overnight at the end of administration, the blood was sampled, and the free fatty acid (NEFA), total cholesterol (TCHO), triglyceride (TG), insulin and DPPIV activity were measured by using serum.

[5] = PK/PD experiment of ICR mice: plasma concentration; type: in vivo, CD-1 (ICR) mice; details: CD-1 (ICR), mouse, oral dose 3 mg/kg
Method: (§1) Experimental animals: CD-1 (ICR) mice aged for 4 weeks and weighed for about 18-22 g.
(§2) Grouping and administration scheme: the mice were fed adaptively, randomly grouped according to the weight on the day before experiment, and fasted overnight. […] After the experimental grouping, the group provided separately for detecting the initial basic value of DPPIV was carried out blood sampling, and other animals were intragastrically administrated with the drug at an administration volume of 10 mL/kg, the blood was sampled after the administration, and all other animals were stimulated with glucose administration; the blood was sampled at 20 min, 40 min, 60 min and 120 min after the glucose administration, respectively, and the plasma concentration and the DPPIV activity were detected by using plasma.
Research on pharmacodynamics-plasma concentration correlation: blood samples were collected at time points of 1 h, 1.33 h, 1.67 h, 2 h and 3 h after administration, and the plasma concentration was measured. The drug exposure value (AUCeff0-3h) of the DPPIV-P1 increased with the increase of dose, which was 16.09 ng·h/mL, 52.65 ng·h/mL, 162.3 ng·h/mL and 542.28 ng·h/mL, respectively.

[6] = Weight of ICR mice of each group; type: in vivo, CD-1 (ICR) mice; details: individual animals, 3 mg/kg group, 3 mg/kg
Method: as §1, §2

[7] = tested on: DIO mice; test: Long-term administration on DIO mice: fasting blood glucose; type: in vivo; details: for Fasting blood glucose: 30 mg/kg daily intragastric
Method: as §3, §4, §5

## C[C@@H]1c2cnc(C(F)(F)F)n2CCN1C(=O)C[C@H](N)Cc1cc(F)c(F)cc1F [phosphate crystal form A, (8R)-7-[(3R)-3-amino-1-oxo-4-(2,4,5-trifluorophenyl)butyl]-5,6,7,8-tetrahydro-8-methyl-3-(trifluoromethyl)imidazo[1,5-a]pyrazine]
[1]
  crystal form after heating (XRPD): transformed into a phosphate crystal form B

## C[C@@H]1c2cnc(C(F)(F)F)n2CCN1C(=O)C[C@H](N)Cc1cc(F)c(F)cc1F [Example 1, (8R)-7-[(3R)-3-amino-1-oxo-4-(2,4,5-trifluorophenyl)butyl]-5,6,7,8-tetrahydro-8-methyl-3-(trifluoromethyl)imidazo[1,5-a]pyrazine]
[2]; 1,4-Dioxane, organic solvent or mixture
  solubility: 2.7 to 2.9 mg/mL (≈ 6.42 to 6.9 mM)
[2]; 2-MeTHF, organic solvent or mixture
  solubility: 38.3 to 57.5 mg/mL (≈ 91.1 to 137 mM)
[2]; ACN, organic solvent or mixture
  solubility: 57.5 to 115 mg/mL (≈ 137 to 274 mM)
[2]; Acetic acid, organic solvent or mixture
  solubility: < 54 mg/mL
[2]; Acetone, organic solvent or mixture
  solubility: 47.5 to 95 mg/mL (≈ 113 to 226 mM)
[2]; CHCl3, organic solvent or mixture
  solubility: < 1.3 mg/mL
[2]; DCM, organic solvent or mixture
  solubility: < 1.1 mg/mL
[2]; DMF, organic solvent or mixture
  solubility: < 42 mg/mL
[2]; DMSO, organic solvent or mixture
  solubility: 46 to 115 mg/mL (≈ 109 to 274 mM)
[2]; EtOAc, organic solvent or mixture
  solubility: < 1.1 mg/mL
[2]; EtOH, organic solvent or mixture
  solubility: 57.5 to 115 mg/mL (≈ 137 to 274 mM)
[2]; Heptane, organic solvent or mixture
  solubility: < 1.3 mg/mL
[2]; Hexane, organic solvent or mixture
  solubility: < 1.2 mg/mL
[2]; IPA, organic solvent or mixture
  solubility: 38.3 to 57.5 mg/mL (≈ 91.1 to 137 mM)
[2]; IPAc, organic solvent or mixture
  solubility: < 1.1 mg/mL
[2]; MEK, organic solvent or mixture
  solubility: 72.5 to 145 mg/mL (≈ 172 to 345 mM)
[2]; MIBK, organic solvent or mixture
  solubility: < 1 mg/mL
[2]; MTBE, organic solvent or mixture
  solubility: < 0.9 mg/mL
[2]; MeOH, organic solvent or mixture
  solubility: 67.5 to 135 mg/mL (≈ 161 to 321 mM)
[2]; NMP, organic solvent or mixture
  solubility: 20 to 40 mg/mL (≈ 47.6 to 95.2 mM)
[2]; THF, organic solvent or mixture
  solubility: 46 to 115 mg/mL (≈ 109 to 274 mM)
[2]; Toluene, organic solvent or mixture
  solubility: < 1 mg/mL
[2]; cyclohexanol, organic solvent or mixture
  solubility: < 1 mg/mL
[2]; isoamyl alcohol, organic solvent or mixture
  solubility: 10 to 13.3 mg/mL (≈ 23.8 to 31.6 mM)
[2]; isobutyl alcohol, organic solvent or mixture
  solubility: 3.8 to 4.7 mg/mL (≈ 9.04 to 11.2 mM)
[2]; n-amyl alcohol, organic solvent or mixture
  solubility: 6.8 to 8.5 mg/mL (≈ 16.2 to 20.2 mM)
[2]; n-butyl alcohol, organic solvent or mixture
  solubility: 60 to 120 mg/mL (≈ 143 to 285 mM)
[2]; organic solvent or mixture, 1- Octanol
  solubility: < 0.9 mg/mL
[2]; sec-butyl alcohol, organic solvent or mixture
  solubility: < 1 mg/mL
[2]; water, H2O
  solubility: 21 to 42 mg/mL (≈ 50 to 99.9 mM)

## N[C@@H](CC(=O)N1CCn2c(nnc2C(F)(F)F)C1)Cc1cc(F)c(F)cc1F [Sitagliptin phosphate, reference compound]
[3]
  decrease of insulin compared with the model control group: 58.3%
  decrease of total cholesterol (TCHO) compared with the model control group: 25.4%
[3]; fasted overnight
  Serum NEFA: 1.11 ± 0.13 mmol/L
  Serum TCHO: 3.99 ± 0.798 mmol/L
  Serum TG: 0.94 ± 0.15 mmol/L
  Serum insulin: 2.2 ± 1.38 ng/mL
[4]; 30 mg/kg
  Food intake: 2.2 ± 5.0 g/day
[4]; 30 mg/kg daily, D1
  weight: 37.2 ± 4.4 g
[4]; 30 mg/kg daily, D7
  weight: 35.3 ± 3.7 g
[4]; 30 mg/kg daily, D14
  weight: 34.4 ± 4.9 g
[4]; 30 mg/kg daily, D21
  weight: 37.2 ± 5.3 g
[4]; 30 mg/kg daily, D28
  weight: 39.5 ± 5.0 g
[4]; 30 mg/kg, total data table of metabolic parameters (end of experiment)
  weight: 39.5 ± 5.0 g
[4]; individual animals, 30 mg/kg
  weight after the drug was administrated for 28 days: 39.9 (2×) and 31.0 and 34.8 and 41.6 and 32.2 and 40.5 and 40.8 and 45.6 and 47.1 and 41.0
[5]; 1 hour
  concentration at 1 h: 184 ± 10.2 ng/mL
[5]; 1.33 hours
  concentration at 1.33 h: 159 ± 46.6 ng/mL
[5]; 1.67 hours
  concentration at 1.67 h: 152 ± 15.1 ng/mL
[5]; 2 hours
  concentration at 2 h: 142 ± 19.6 ng/mL
[5]; 3 hours
  concentration at 3 h: 97.9 ± 35.5 ng/mL
[5]; read-out: Drug exposure (AUCeff0-3 h)
  AUC: 370 ng·h/mL
[6]
  weight: 24.0 (3×) and 26.0 (2×) and 25.1 (2×) and 25.0 and 24.6 (2×) and 24.4 and 24.3 and 22.9 and 22.2 and 26.5
[7]; D 1
  Fasting blood glucose: 8.3 ± 1.1 mmol/L
[7]; D 3
  Fasting blood glucose: 6.8 ± 1.1 mmol/L
[7]; D 7
  Fasting blood glucose: 8.0 ± 1.2 mmol/L
[7]; D 14
  Fasting blood glucose: 8.5 ± 1.3 mmol/L
[7]; D 21
  Fasting blood glucose: 8.9 ± 0.9 mmol/L
[7]; D 28
  Fasting blood glucose: 8.6 ± 0.9 mmol/L
[7]; individual animals, 30 mg/kg
  fasting blood glucose data after the drug was administrated for 28 days: 8.9 and 8.3 and 8.4 and 7.8 and 9.1 and 8.2 and 9.8 and 7.9 (2×) and 8 and 10.8
